According to patent publication US20200392108A1, “ANTIBODY-DRUG CONJUGATES AND RELATED COMPOUNDS, COMPOSITIONS AND METHODS” (Magenta Therapeutics, Inc., priority 2011, published 2020):
Like-named read-outs stand apart in the source and are kept apart here. Square brackets hold non-standard residues; d marks the D form. Peptide text beside a SMILES is read from it. Dolaproine = CO[C@@H]([C@@H]1CCCN1)[C@@H](C)C(=O)O; Dil = CC[C@H](C)[C@H](NC)[C@@H](CC(=O)O)OC; NMeV = CN[C@H](C(=O)O)C(C)C

Test system: BT474 (HER2+) cell line
Assay: Standard cellular cytotoxicity assay, BT474
Type: cell-based, human
From the text: The cytotoxicity of tubulysins T1 and T2 was compared to the cytotoxicity of MMAF using the BT474 (HER2+) cell line in a standard cellular cytotoxicity assay.

| SMILES | IC50 (Homo sapiens, BT-474) [nM] | IC50 [nM] |
| --- | --- | --- |
| CC[C@H](C)[C@H](NC(=O)[C@H]1CCCCN1C)C(=O)N(C)[C@H](C[C@@H](OC(C)=O)c1nc(C(=O)O)cs1)C(C)C [T1] | 11 | – |
| CC[C@H](C)[C@@H]([C@@H](CC(=O)N1CCC[C@H]1[C@H](OC)[C@@H](C)C(=O)N[C@@H](Cc1ccccc1)C(=O)O)OC)N(C)C(=O)[C@@H](NC(=O)[C@@H](NC)C(C)C)C(C)C [MMAF, monomethylauristatin F] (H-[NMeV]V[Dil][Dolaproine]F-OH) | – | 93 |
| CC[C@H](C)[C@H](NC(=O)[C@H]1CCCCN1C)C(=O)N(C)[C@H](C[C@@H](OC(C)=O)c1nc(C(=O)N[C@@H](Cc2ccccc2)C[C@H](C)C(=O)O)cs1)C(C)C [T2] | < 0.1 | – |
